The results in this text go back to PMC12040169 (PLOS Biology, 2025).

The first data set in a line: in vitro. The conditions noted are these: human, hela cells, % viability.
Turning to `CC(C)(C)OC(=O)N1CCC(Oc2nccc3c2ccn3Cc2ccc(S(C)(=O)=O)cc2)CC1` [CBK132881], the viability at 28.5 h, 10 µM came to 89.2%.
Same read-out and setting: the result for `COc1ccc(C(=O)N2CCN(CC(=O)N3CCOCC3)CC2)cc1` [CBK133150] reads 108%.
Same read-out and setting: the figure for `COc1cc(NC(=O)Cn2cnc3c2c(=O)n(C)c(=O)n3C)c(OC)cc1Cl` [CBK133231] is 99.2%; for `Cn1c(=O)c2c(ncn2CC(=O)Nc2ccccc2I)n(C)c1=O` [CBK133275] it is 95.6%; for `Cn1c(=O)c2c(ncn2CC(=O)Nc2cccnc2)n(C)c1=O` [CBK133286] it is 94.5%.
Same read-out and setting: the result for `Cn1c(=O)c2c(ncn2CC(=O)Nc2cccc(Br)c2)n(C)c1=O` [CBK133287] reads 90.7%; that for `Cc1cc(Br)ccc1NC(=O)Cn1cnc2c1c(=O)n(C)c(=O)n2C` [CBK133289], 95.6%.
Consider `Cn1c(=O)c2c(ncn2CC(=O)Nc2ccc(C#N)cc2)n(C)c1=O` [CBK133466], for which the viability at 28.5 h, 10 µM worked out at 90.9%.
Same read-out and setting: the result for `Cn1c(=O)c2c(ncn2CC(=O)Nc2ccc3ccccc3c2)n(C)c1=O` [CBK133722] reads 81.2%; that for `CCCn1c(NCc2cccc(OC)c2O)nc2ccccc21` [CBK133763], 96.4%; that for `Cc1cccc(OCC(=O)N2CCN(Cc3ccccn3)CC2)c1` [CBK134023G], 92.3%.
On the same count and under the same terms, the figure for `COC(=O)c1ccc(NC(=O)Cn2nnc(-c3ccc(CN4CCOCC4)cc3)n2)cc1` [CBK134589] is 95.4%; for `Cc1ccc2cc(CN(CCN(C)C)C(=S)Nc3ccccc3)c(=O)[nH]c2c1` [CBK134909] it is 104%; for `COc1ccc2[nH]c(=O)c(CN(CCN(C)C)C(=S)Nc3ccc(F)cc3)cc2c1` [CBK135011] it is 97.1%.
In the case of `Cc1ccc(NC(=S)N(CCN(C)C)Cc2cc3ccc(C)cc3[nH]c2=O)c(C)c1` [CBK135134], the viability at 28.5 h, 10 µM is 92.4%.
On the same count and under the same terms, the figure for `CN(C)CCN(Cc1cc2cc3c(cc2[nH]c1=O)OCO3)C(=S)Nc1ccc(F)cc1` [CBK135186] is 91.2%; for `COc1ccc2[nH]c(=O)c(CN(CCCN3CCOCC3)C(=O)Nc3cccc(Cl)c3)cc2c1` [CBK135402] it is 96.8%; for `Nc1ccc(-c2nnn(CC(=O)NC3CCCCC3)n2)cc1` [CBK135771] it is 86.7%.
The same measure, in the same setting: the result for `COc1ccc(CNC(=O)Cn2nnc(-c3ccc(NC(=O)C4CCCCC4)cc3)n2)cc1` [CBK135876] reads 101%; that for `Cc1cc(C)nc(N2CCC(C(=O)NCc3ccc(Cl)cc3)CC2)n1` [CBK136319], 94.8%.
Still for that read-out and setting: the figure for `CC(C)(C)OC(=O)NC(C)(C)C(=O)N1C[C@H](C(=O)N2CCC3(CC2)CN(S(C)(=O)=O)c2ccccc23)[C@@H](c2nc3ccccc3s2)C1` [CBK136737] is 91.5%; for `O=C(c1ccc(OC(F)(F)F)cc1)N1CCC2(CCN(Cc3ccccc3)CC2)C1` [CBK136746] it is 101%.
For `O=C(c1cc[nH]c1)N1CCC2(CCN(Cc3ccccc3)CC2)C1` [CBK136756], the viability at 28.5 h, 10 µM was found to be 86.9%.
The same measure, in the same setting: the result for `Cc1cc(C(=O)N2CCC(Cn3cncn3)(C3CCCCC3)CC2)n[nH]1` [CBK136786] reads 99.2%.
Turning to `O=C(C1COc2ccccc2O1)N1CCC(Cn2cncn2)(C2CCCCC2)CC1` (stereo not drawn) [CBK136792], the viability at 28.5 h, 10 µM was found to be 102%.
Same read-out and setting: the figure for `CSCCC(=O)N1CCC(Cn2cncn2)(C2CCCCC2)CC1` [CBK136799] is 102%.
Still for that read-out and setting: the result for `Cc1cn(CC(=O)N2CCC(Cn3cncn3)(C3CCCCC3)CC2)c(=O)[nH]c1=O` [CBK136800] reads 88.4%.
As to `O=C(CN1CCOCC1)N1CCC(Cn2cncn2)(C2CCCCC2)CC1` [CBK136803], the viability at 28.5 h, 10 µM was 95.7%.
Regarding `O=C(c1ccco1)N1CCC(Cn2cncn2)(C2CCCCC2)CC1` [CBK136811], the viability at 28.5 h, 10 µM turned out to be 87.2%.
In the case of `CN1CCC[C@H]1C(=O)N1CCC(Cn2cncn2)(C2CCCCC2)CC1` [CBK136818], the viability at 28.5 h, 10 µM is 101%.
On the same count and under the same terms, the result for `CC(C)(N)CC(=O)N1CCC(Cn2cncn2)(C2CCCCC2)CC1` [CBK136822] reads 89.4%; that for `O=C(c1cncnc1)N1CCC(Cn2cncn2)(C2CCCCC2)CC1` [CBK136823], 92.7%.
`O=C(c1ccc2[nH]c(=O)[nH]c2c1)N1CCC(Cn2cncn2)(C2CCCCC2)CC1` [CBK136824]: the viability at 28.5 h, 10 µM stood at 104%.
Regarding `O=C(c1ccc(Oc2ccccc2)cc1)N1CCC2(CCN(Cc3ccccc3)C2)C1` (stereo not drawn) [CBK136833], the viability at 28.5 h, 10 µM was 99.3%.
The same measure, in the same setting: the figure for `O=C1NC(=O)C(CC(=O)N2CCC3(CCN(Cc4ccccc4)C3)C2)N1` (stereo not drawn) [CBK136850] is 88.8%; for `O=C(c1c(F)cccc1F)N1CCCC2(CCN(Cc3ccccc3)C2)C1` (stereo not drawn) [CBK136886] it is 108%; for `O=C(O)CCC(=O)N1CCCC2(CCN(Cc3ccccc3)C2)C1` (stereo not drawn) [CBK136890] it is 97%.
Still for that read-out and setting: the result for `CCOC(=O)C1(C2CCCCC2)CCN(C(=O)c2cccc(C(F)(F)F)c2)CC1` [CBK136920] reads 91.7%; that for `CCOC(=O)C1(C2CCCCC2)CCN(C(=O)Cc2ccc(Cl)c(Cl)c2)CC1` [CBK136922], 95.2%.
For `CCOC(=O)C1(C2CCCCC2)CCN(C(=O)C2COc3ccccc3O2)CC1` (stereo not drawn) [CBK136925], the viability at 28.5 h, 10 µM is 101%.
Still for that read-out and setting: the figure for `CCOC(=O)C1(C2CCCCC2)CCN(C(=O)CCSC)CC1` [CBK136929] is 113%; for `CCOC(=O)C1(C2CCCCC2)CCN(C(=O)C(c2ccccc2)c2ccccc2)CC1` [CBK136943] it is 106%.
The same measure, in the same setting: the result for `CCOC(=O)C1(C2CCCCC2)CCN(C(=O)C2CCN(C)CC2)CC1` [CBK136948] reads 92.7%; that for `CCNC(=O)N1CC2(CCN(Cc3ccc4nsnc4c3)CC2)c2ccccc21` [CBK136968], 102%; that for `CC(C)C(=O)N1CC2(CCN(Cc3nc4ccccc4s3)CC2)c2ccccc21` [CBK136980], 96%.
On the same count and under the same terms, the result for `CCN1CC2(CCN(Cc3nc4ccccc4s3)CC2)c2ccccc21` [CBK136993] reads 108%.
As for `CCN1CC2(CCN(Cc3ccc4nsnc4c3)CC2)c2ccccc21` [CBK136994], the viability at 28.5 h, 10 µM was 87.7%.
As to `O=C(CO)N1CC2(CCN(CCc3cccc4ccccc34)CC2)c2ccccc21` [CBK137003], the viability at 28.5 h, 10 µM is 91.8%.
On the same count and under the same terms, the figure for `O=C(CO)N1CC2(CCN(Cc3cccc4cccnc34)CC2)c2ccccc21` [CBK137004] is 104%; for `N#CCCCN1CCC2(CC1)CN(C(=O)CO)c1ccccc12` [CBK137007] it is 86%; for `OCCN1CC2(CCN(Cc3c(F)cccc3F)CC2)c2ccccc21` [CBK137010] it is 109%.
On the same count and under the same terms, the figure for `OCCN1CC2(CCN(CCc3cccc4ccccc34)CC2)c2ccccc21` [CBK137013] is 106%; for `OCCN1CC2(CCN(Cc3cccc4cccnc34)CC2)c2ccccc21` [CBK137014] it is 95.1%.
For `N#CCCCN1CCC2(CC1)CN(CC(N)=O)c1ccccc12` [CBK137024], the viability at 28.5 h, 10 µM turned out to be 97.7%.
`Cc1cnc(CNC(=O)Cn2nnc(-c3ccc(CN4CCC(C)CC4)cc3)n2)cn1` [CBK137067C]: the viability at 28.5 h, 10 µM was 101%.
Still for that read-out and setting: the result for `O=C(c1ccc2occc2c1)N1CCCC2(CCN(C(=O)c3cc(F)c(F)cc3F)C2)C1` (stereo not drawn) [CBK137071] reads 90.1%; that for `O=C(Cc1c[nH]cn1)N1CCCC2(CCN(C(=O)c3cc(F)c(F)cc3F)C2)C1` (stereo not drawn) [CBK137072], 95.6%; that for `COc1ccc(C(=O)N2CCC3(CCCN(C(=O)CC4NC(=O)NC4=O)C3)C2)cc1OC` (stereo not drawn) [CBK137082], 93.7%.
With `COc1ccc(C(=O)N2CCC3(CCCN(C(=O)Cn4cc(C)c(=O)[nH]c4=O)C3)C2)cc1OC` (stereo not drawn) [CBK137085], the viability at 28.5 h, 10 µM was 107%.
Still for that read-out and setting: the result for `COc1ccc(C(=O)N2CCC3(CCCN(C(=O)CN4C(=O)CSC4=O)C3)C2)cc1OC` (stereo not drawn) [CBK137088] reads 115%; that for `Cc1cc(C(=O)N2CCC3(CCN(Cc4ccccc4)C3)C2)n[nH]1` (stereo not drawn) [CBK137092T], 93.4%.
The same measure, in the same setting: the result for `CCOC(=O)C1(C2CCCCC2)CCN(C(=O)c2cc[nH]c2)CC1` [CBK137103] reads 92.1%; that for `CCOC(=O)C1(C2CCCCC2)CCN(C(=O)c2cccnc2)CC1` [CBK137104T], 95.4%.
As to `COc1ccc(C(=O)N2CCC3(CCN(CCN4CCCCC4)C3)C2)cc1OC` (stereo not drawn) [CBK137113T], the viability at 28.5 h, 10 µM was found to be 103%.
Same read-out and setting: the result for `O=C(O)CCN1CCC2(CCN(C(=O)c3cc(F)c(F)cc3F)C2)C1` (stereo not drawn) [CBK137123] reads 86.8%.
On to `O=c1[nH]c2ccccc2n1CCCN1CCC2(CC1)CN(CCO)c1ccccc12` [CBK137133], for which the viability at 28.5 h, 10 µM came out at 97.4%.
As to `O=C(O)CCN1CCCC2(CCN(C(=O)c3ccoc3)C2)C1` (stereo not drawn) [CBK137139], the viability at 28.5 h, 10 µM was found to be 93.4%.
Consider `O=C(CN1CCCC2(CCN(C(=O)c3ccoc3)C2)C1)Nc1ncccn1` (stereo not drawn) [CBK137140], for which the viability at 28.5 h, 10 µM worked out at 102%.
For `O=C(Cc1c[nH]cn1)N1CCC2(CCN(Cc3ccccc3)C2)C1` (stereo not drawn) [CBK137147], the viability at 28.5 h, 10 µM stood at 91%.
On the same count and under the same terms, the figure for `O=C(c1ccc2[nH]c(=O)[nH]c2c1)N1CCCC2(CCN(Cc3ccccc3)C2)C1` (stereo not drawn) [CBK137149] is 91.7%; for `CCN(CCC(C)Sc1ccccc1)c1cncc(Oc2ccc(S(C)(=O)=O)cc2)n1` (stereo not drawn) [CBK137186T] it is 96.5%.
Same read-out and setting: the result for `CC1(C(C)(O)C(F)F)OC(NC2C3CC4CC(C3)CC2C4)=NC1=O` (stereo not drawn) [CBK137190] reads 103%.
On the same count and under the same terms, the result for `O=S(=O)(c1ccccc1)N1CC2(CCNCC2)c2ccccc21` [CBK137413] reads 84.2%; that for `CC(=O)N1CCC(O)(C2(C)OC(NC3C4CC5CC(C4)CC3C5)=NC2=O)CC1` (stereo not drawn) [CBK138181], 91.8%.

The data set is the same for the next values; noted with them: human, hela cells, % viability, bulk resorufin, single well.
As to `CCOC(=O)N1CCC2(CC1)OCc1ccc(-c3ccc(S(C)(=O)=O)cc3)cc1O2` [CBK133035], the viability at 28.5 h, 10 µM was determined as 86.1%.

A word on the viability: it is a read-out of living cells in per cent, often relative to untreated cells.
